According to ChEMBL document CHEMBL1201862, “PubChem BioAssay data set” (2004):
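Exposure lasted 48 hours, with cells grown in 96-well plates and compounds tested at five concentrations. GI50: concentration for 50% inhibition of growth.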 The source made the active and inactive calls. Rule as the data show it: active = GI50 up to about 1.1 µM and inactive = higher.

Tests used:
Assay in all cases: NCI anticancer screen, dose series, 48 h
786-0 = system: 786-0
A498 = system: A498
A549 = system: A549
ACHN = system: ACHN
CAKI-1 = system: CAKI-1
CCRF-CEM = system: CCRF-CEM
COLO 205 = system: COLO 205
DU-145 = system: DU-145
EKVX = system: EKVX
HCC 2998 = system: HCC 2998
HCT-116 = system: HCT-116
HCT-15 = system: HCT-15
HL-60 = system: HL-60
HOP-62 = system: HOP-62
HOP-92 = system: HOP-92
HT-29 = system: HT-29
Hs-578T = system: Hs-578T
IGROV-1 = system: IGROV-1
K562 = system: K562
KM12 = system: KM12
LOX IMVI = system: LOX IMVI
M14 = system: M14
MCF7 = system: MCF7
MDA-MB-231 = system: MDA-MB-231
MDA-MB-435 = system: MDA-MB-435
MDA-N = system: MDA-N
MOLT-4 = system: MOLT-4
Malme-3M = system: Malme-3M
NCI-H226 = system: NCI-H226
NCI-H23 = system: NCI-H23
NCI-H460 = system: NCI-H460
NCI-H522 = system: NCI-H522
NCI/ADR-RES = system: NCI/ADR-RES
OVCAR-3 = system: OVCAR-3
OVCAR-4 = system: OVCAR-4
OVCAR-5 = system: OVCAR-5
OVCAR-8 = system: OVCAR-8
PC-3 = system: PC-3
RXF 393 = system: RXF 393
SF-268 = system: SF-268
SF-295 = system: SF-295
SF-539 = system: SF-539
SK-MEL-28 = system: SK-MEL-28
SK-MEL-2 = system: SK-MEL-2
SK-MEL-5 = system: SK-MEL-5
SK-OV-3 = system: SK-OV-3
SN12C = system: SN12C
SNB-19 = system: SNB-19
SNB-75 = system: SNB-75
SR = system: SR
SW-620 = system: SW-620
T47D = system: T47D
TK-10 = system: TK-10
U-251 = system: U-251
UACC-257 = system: UACC-257
UACC-62 = system: UACC-62
RPMI-8226 = system: RPMI-8226
UO-31 = system: UO-31

NC(=O)N/N=C1/c2ccccc2-n2nccc21
GI50 (786-0): 76.6 µM (inactive)
GI50 (A498): 38.7 µM (inactive)
GI50 (A549): 78.3 µM (inactive)
GI50 (ACHN): 43.5 µM (inactive)
GI50 (CAKI-1): 52.5 µM (inactive)
GI50 (CCRF-CEM): 37.6 µM (inactive)
GI50 (COLO 205): 67.1 µM (inactive)
GI50 (DU-145): > 100 µM (inactive)
GI50 (EKVX): > 100 µM (inactive)
GI50 (HCC 2998): 52.5 µM (inactive)
GI50 (HCT-116): 30.8 µM (inactive)
GI50 (HCT-15): 55.7 µM
GI50 (HL-60): 8.59 µM (inactive)
GI50 (HOP-62): 70.1 µM (inactive)
GI50 (HOP-92): 64.7 µM (inactive)
GI50 (HT-29): 76.4 µM (inactive)
GI50 (Hs-578T): 85.5 µM (inactive)
GI50 (IGROV-1): 39.9 µM (inactive)
GI50 (K562): 75.7 µM (inactive)
GI50 (KM12): > 100 µM (inactive)
GI50 (LOX IMVI): 51.3 µM (inactive)
GI50 (M14): 71.9 µM (inactive)
GI50 (MCF7): 21.5 µM (inactive)
GI50 (MDA-MB-231): > 100 µM (inactive)
GI50 (MDA-MB-435): 57.4 µM (inactive)
GI50 (MDA-N): 43.1 µM (inactive)
GI50 (MOLT-4): 47.1 µM (inactive)
GI50 (Malme-3M): > 100 µM (inactive)
GI50 (NCI-H226): 45.5 µM (inactive)
GI50 (NCI-H23): > 100 µM (inactive)
GI50 (NCI-H460): 45.1 µM (inactive)
GI50 (NCI-H522): > 100 µM (inactive)
GI50 (NCI/ADR-RES): > 100 µM (inactive)
GI50 (OVCAR-3): 40.7 µM (inactive)
GI50 (OVCAR-4): > 100 µM (inactive)
GI50 (OVCAR-5): > 100 µM (inactive)
GI50 (OVCAR-8): > 100 µM (inactive)
GI50 (PC-3): > 100 µM (inactive)
GI50 (RXF 393): 25.9 µM (inactive)
GI50 (SF-268): 87.1 µM (inactive)
GI50 (SF-295): > 100 µM (inactive)
GI50 (SF-539): 48.5 µM (inactive)
GI50 (SK-MEL-28): > 100 µM (inactive)
GI50 (SK-MEL-2): > 100 µM (inactive)
GI50 (SK-MEL-5): 82.8 µM (inactive)
GI50 (SK-OV-3): > 100 µM (inactive)
GI50 (SN12C): 89.9 µM (inactive)
GI50 (SNB-19): > 100 µM (inactive)
GI50 (SNB-75): 28.8 µM (inactive)
GI50 (SR): 39 µM (inactive)
GI50 (SW-620): > 100 µM (inactive)
GI50 (T47D): 27.4 µM (inactive)
GI50 (TK-10): > 100 µM (inactive)
GI50 (U-251): > 100 µM (inactive)
GI50 (UACC-257): > 100 µM (inactive)
GI50 (UACC-62): 48.6 µM (inactive)

N#CC(C#N)C1CN2CCC1CC2 (stereo not drawn)
GI50 (786-0): > 100 µM (inactive)
GI50 (A498): > 100 µM (inactive)
GI50 (A549): > 100 µM (inactive)
GI50 (ACHN): > 100 µM (inactive)
GI50 (CAKI-1): > 100 µM (inactive)
GI50 (CCRF-CEM): > 100 µM (inactive)
GI50 (COLO 205): > 100 µM (inactive)
GI50 (DU-145): > 100 µM (inactive)
GI50 (EKVX): > 100 µM (inactive)
GI50 (HCC 2998): > 100 µM (inactive)
GI50 (HCT-116): > 100 µM (inactive)
GI50 (HCT-15): > 100 µM
GI50 (HL-60): > 100 µM (inactive)
GI50 (HOP-62): > 100 µM (inactive)
GI50 (HT-29): > 100 µM (inactive)
GI50 (Hs-578T): > 100 µM (inactive)
GI50 (IGROV-1): > 100 µM (inactive)
GI50 (K562): > 100 µM (inactive)
GI50 (KM12): > 100 µM (inactive)
GI50 (LOX IMVI): > 100 µM (inactive)
GI50 (M14): > 100 µM (inactive)
GI50 (MCF7): > 100 µM (inactive)
GI50 (MDA-MB-231): > 100 µM (inactive)
GI50 (MDA-MB-435): > 100 µM (inactive)
GI50 (MDA-N): > 100 µM (inactive)
GI50 (MOLT-4): > 100 µM (inactive)
GI50 (Malme-3M): > 100 µM (inactive)
GI50 (NCI-H226): > 100 µM (inactive)
GI50 (NCI-H23): > 100 µM (inactive)
GI50 (NCI-H460): > 100 µM (inactive)
GI50 (NCI-H522): > 100 µM (inactive)
GI50 (NCI/ADR-RES): > 100 µM (inactive)
GI50 (OVCAR-3): > 100 µM (inactive)
GI50 (OVCAR-4): > 100 µM (inactive)
GI50 (OVCAR-5): > 100 µM (inactive)
GI50 (OVCAR-8): 79.6 µM (inactive)
GI50 (PC-3): > 100 µM (inactive)
GI50 (RPMI-8226): > 100 µM (inactive)
GI50 (RXF 393): 90.4 µM (inactive)
GI50 (SF-268): > 100 µM (inactive)
GI50 (SF-295): > 100 µM (inactive)
GI50 (SF-539): > 100 µM (inactive)
GI50 (SK-MEL-28): > 100 µM (inactive)
GI50 (SK-MEL-2): > 100 µM (inactive)
GI50 (SK-MEL-5): > 100 µM (inactive)
GI50 (SK-OV-3): > 100 µM (inactive)
GI50 (SN12C): > 100 µM (inactive)
GI50 (SNB-19): > 100 µM (inactive)
GI50 (SNB-75): > 100 µM (inactive)
GI50 (SR): > 100 µM (inactive)
GI50 (SW-620): > 100 µM (inactive)
GI50 (T47D): > 100 µM (inactive)
GI50 (TK-10): > 100 µM (inactive)
GI50 (U-251): > 100 µM (inactive)
GI50 (UACC-257): > 100 µM (inactive)
GI50 (UACC-62): > 100 µM (inactive)
GI50 (UO-31): > 100 µM (inactive)
